According to patent publication EP1082333B1, “THIOCO[…], PREPARATION AND THERAPEUTIC APPLICATION” (SANOFI-SYNTHELABO, priority 1998, dated 1999):

System: réflexe polysynaptique
Assay: Inhibition of the polysynaptic reflex in the normal rat (RPRN), EMG of biceps femoris
Assay type: in vivo
Details: 10 mg/kg, voie i.p
Excerpt: L'activité décontraccurante du composé de l'invention a été déterminée par l'inhibition du réflexe polysynaptique chez le rat normal (RPRN). L'animal est placé en contention en décubitus ventral. Les membres postérieurs sont immobilisés. Les réflexes polysynaptiques sont évoqués dans le muscle Biceps fémoral (fléchisseur de la cuisse) par stimulation électrique de la voûte plantaire (territoire cutané du nerf sural). L'EMG (Electro-Myo-Graphie) est recueilli par deux électrodes en acier inoxydable insérées dans le muscle parallélement aux fibres.
Les électrodes de stimulation en acier inoxydable sont insérées en position sous-cutanée. La stimulation consiste en un choc électrique carré de 0.2-0.4 ms de durée et de 0.2 Hz de fréquence. L'intensité de la stimulation est réglée pour obtenir des réflexes bien constitués et de surface stable (8-12 mA).
L'EMG est amplifié. La surface de chaque réflexe est mesurée.
Des séries de 20 réflexes sont enregistrées toutes les 15 minutes. La surface des 20 réflexes de chaque série est moyennée.
Après plusieurs séries contrôles, le produit à étudier est administré. La moyenne des 20 premières réponses contrôles est prise pour 100 %. L'évolution des réponses EMG est suivie alors pendant 2 ou 3 heures.

With `COc1c(OC2OC(C(=O)O)C(O)C(O)C2O)cc2c(c1OC)-c1ccc(SC)c(=O)cc1C(NC(C)=O)CC2` (stereo not shown) [composé de l'invention] the “inhibe le réflexe polysynaptique” value was 78%.
